Test system: DEN-1 virus strain FGA/NA d1d
Assay: Inhibition of DC-SIGN-mediated DEN-1 virus infection of THP/DC-SIGN cells, indirect immunofluorescence
Assay type: cell-based, DEN-1 virus (human monocytic THP/DC-SIGN cells)
Conditions: m.o.i. 5 AP61 FFU/cell
Procedure: Prior to infection, THP-1/DC/SIGN cells were incubated with either Mab 9D12 (dilution 1:50), Mab BD12.5 (20 μg/ml), Mab 1B10.2.6 (20 μg/ml), EDTA (5 mM), mannan (20 μg/ml), or mock-treated (control). Treated cells were infected with DEN-1 virus strain FGA/NA did (5 AP61 FFU/cell) in the presence of reagents for 2 hrs. Viral antigens were detected by indirect immunofluorescence as described in the legend of FIG. 1. The percentages of infected cells 48 h post-infection are indicated. Values represent the mean of triplicate assays ±SD.
Cells were washed once with RPMI 1640, incubated with highly purified virus in RPMI 1640 supplemented with 0.2% bovine serum albumine (BSA, pH 7.5) (Sigma) for 2 hrs at 37° C. and placed into fresh media supplemented with 2% FCS, 2 mM L-glutamine and antibiotics Peni/Strepto at 37° C. for 40 hrs.
The percentage of cells expressing viral antigen was determined using either DEN-1 virus-specific hyperimmune mouse ascites fluid (HMAF) 9801 (strain Hawaï), WN virus-specific HMAF 0801 (strain IS-98-ST1), or YF virus-specific HMAF. 9803 (strain FNV) with dilution of 1:50, by indirect immunofluorescence as previously described (Desprès et al., J. Virol., 70: 4090, 1996). […]

Compound | infectivity of DEN-1 virus in preincubated THP/DC-SIGN cells (EDTA 5 mM, Mab 20 μg/ml) | reduction of FGA/NA d1d infectivity (20 μg/ml)
O=C(O)CN(CCN(CC(=O)O)CC(=O)O)CC(=O)O [EDTA] | essentially abolished | –
mannan | – | 75%

Reference: patent US7419789B2, “Method of inhibiting binding of Dengue virus to a human cell with DC-SIGN blockers” (Institut Pasteur, priority 2002, dated 2008)
